PMC9951978, “Comparative Study of Different H2S Donors as Vasodilators and Attenuators of Superoxide-Induced Endothelial Damage” (Antioxidants, 2023)

Tests used:
[1] = Stability of the compounds in human serum (RP-HPLC); type: in vitro ADME; details: 37 °C; for % Compd ± SE: 200 µM; for half-life at 200 µM: male, read-out: Half-life (t1/2)
Description: A solution of each compound (10 mM) in DMSO was added to human serum (obtained by filtration and sterilization from AB, Sigma-Aldrich (Merck KGaA, 64,271 Darmstadt, Germany) male human blood) and was preheated to 37 °C to obtain a final concentration of 200 µM. The resulting solution was incubated at 37.0 ± 0.5 °C, and aliquots of 300 µL were taken at appropriate time intervals and added to 300 µL of CH3CN acidified with 0.1% formic acid in order to deproteinize the serum. The mixture was centrifuged for 10 min at 2150× g, and the clear supernatant was filtered (PTFE filters, 0.45 µm, VWR (VWR International S.r.l., Milano, Italy)) and analyzed by RP-HPLC as described below. All experiments were performed at least in triplicate.
(§1) RP-HPLC analysis was performed with an HP 1100 chromatograph system (Agilent Technologies, Palo Alto, CA, USA) equipped with an injector (Rheodyne, Cotati, CA, USA), a quaternary pump (model G1311A), a membrane degasser (model G1379A), and a diode-array detector (DAD, model G1315B) integrated into the HP1100 system. The data were processed using an HP ChemStation system (Agilent Technologies, Palo Alto, CA, USA). A stationary phase Tracer Excel 120 ODSB (25 × 0.46, 5 μm; Tecnokroma (Teknokroma Analytical S.A., Barcelona, Spain)) was used. The mobile phase consisted of acetonitrile 0.1% HCOOH/water 0.1% HCOOH at a flow rate of 1.0 mL/min, with gradient elution: 35% acetonitrile up to 5 min, 35 to 80% acetonitrile between 5 and 10 min, 80% acetonitrile between 10 and 20 min. The injection volume was 20 μL. The column effluent was monitored for each compound at the wavelength of maximum absorption (referenced against a 700 nm wavelength). Using this RP-HPLC procedure, we separated the compounds from any degradation products and we quantified the compounds during incubation time. The quantification was performed using a calibration curve obtained with standard solutions of compounds chromatographed under the same experimental conditions, in a concentration range of 1–100 μM (r^2 > 0.99).

[2] = Stability at pH 7.4 in PBS in the presence of L-cysteine (50x); type: physicochemical; details: pH 7.4, 37 °C; for half-life at 100 µM: phosphate buffer (PBS) with L-cysteine, read-out: t1/2, buffer + cysteine (50×) (converted)
Description: (§2) The compounds were solubilized at a concentration of 100 µM (starting from a 10 mM stock solution in DMSO) in 0.1 M PBS, pH = 7.4, in the absence or presence of 5 mM L-cysteine (50×). The solutions were incubated at 37.0 ± 0.5 °C, and at appropriate time intervals, aliquots were analyzed by RP-HPLC as described below. All experiments were performed at least in triplicate.
as §1

[3] = Stability at pH 7.4 in phosphate buffer (PBS); type: physicochemical; details: PBS pH 7.4, 37 °C
Description: as §2, §1

rat aorta strips = test: Vasodilating activity on endothelium-denuded rat aorta strips precontracted with KCl; type: cell-based; details: for EC50: endothelium-denuded rat aorta strips precontracted with 25 mM KCl, read-out: Vasodilating activity EC50 ± SEM; for Effect of glibenclamide on the concentration-response curve / EC50: presence vs absence of K+ATP channel blocker glibenclamide; for activation at 300 µM / activation at 10 µM / activation at 100 µM: rat aorta strips precontracted with KCl, read-out: % Vasodilation at the maximum concentration testable
Description: Vasodilating activity was studied on the thoracic aortas from male Wistar rats (180–200 g), following a protocol published elsewhere. All synthesized compounds were dissolved in DMSO. The addition of the vehicle had no perceptible consequence on contraction level. Results were expressed as EC50 ± SE (μM), n = 3–8.
The vasodilator action of H2S-releasing compounds was evaluated on endothelium-denuded rat aorta strips precontracted with KCl. The results reported in Table 1 show the heterogeneous behavior of the tested compounds.

[4] = system: endothelium-intact rat aortic rings; test: Vasoprotection: acetylcholine-induced relaxation in rat aortic rings with endothelium impairment induced by pyrogallol; type: cell-based
Description: The experiments were performed on rat thoracic aortic rings from male Wistar rats (180–200 g), prepared as previously described. The effect of H2S donor or catechin, taken as a reference, on acetylcholine-induced relaxation in aortic rings pre-incubated with pyrogallol was studied as published elsewhere, with some modifications. Aortic rings were incubated with diethyldithiocarbamate (DETCA) 10 mM for 1 h to irreversibly inactivate endogenous superoxide dismutase (SOD). Then, the aortic rings were washed and randomly divided into four groups: (1) control: endothelium-intact rings incubated in Krebs’ solution with vehicle only (DMSO); (2) H2S donor: endothelium-intact rings incubated with H2S donor (100 μM) or reference catechin (10 mM) for 30 min; (3) pyrogallol: endothelium-intact rings incubated with 500 μM pyrogallol for 15 min; (4) H2S donor plus pyrogallol: endothelium-intact rings incubated with H2S donor (100 μM) or reference catechin (10 mM) for 30 min and 500 μM pyrogallol for the last 15 min. After the incubation time, the rings were washed, 1 μM phenylephrine was added to the organ baths, then acetylcholine (10^−9–l0^−5 M) was added cumulatively. Tension was measured and calculated as the percentage of contraction in response to phenylephrine (1 μM). Data were expressed as mean ± SEM, n = 3–9.
Figure 3 Effect of 6 (100 μM) on acetylcholine-induced vasodilation in endothelium-intact rat aortic rings. […] Statistical analyses were made using Student’s t-test for unpaired data. ** p < 0.01 vs. the pyrogallol group.

| SMILES | % Compd ± SE ([1]; 1 h) [%] | % Compd ± SE ([1]; 4 h) [%] | % Compd ± SE ([1]; 24 h) [%] | Stability (% compound ± SE), buffer + cysteine (50×) ([2]; 1 h) [%] | Stability (% compound ± SE), buffer + cysteine (50×) ([2]; 24 h) [%] | Stability (% compound ± SE), buffer ([3]; 24 h) [%] | half-life at 200 µM [1] [h] | other results |
| --- | --- | --- | --- | --- | --- | --- | --- | --- |
| C=CCSCC(NC(C)=O)C(=O)O (stereo not shown) [Compound 1] | 88 ± 1 | 35 ± 1 | 8.0 ± 0.5 | 87.3 ± 1.0 | 69.5 ± 1.0 | 91.5 ± 1.0 |  | Stability (% compound ± SE), buffer + cysteine (50×) ([2]; 6 h): 72.5 ± 1.0% |
| C=CCSSCCC(=O)O [Compound 3] | 80.0 ± 1.0 | 62 ± 2 | 44 ± 1 |  |  | 101.0 ± 1.0 |  | half-life at 100 µM [2]: ~0.167 h |
| C=CCSSCCC(=O)OCC [Compound 4] |  |  |  |  |  |  | < 0.5 | % Vasodilation at the maximum concentration testable, + Glib. 10 μM (rat aorta strips; 100 μM, in the presence of glibenclamide 10 μM): [44 ± 3] ^2%; EC50 (rat aorta strips): 64 ± 6 µM; Effect of glibenclamide on the concentration-response curve / EC50 (rat aorta strips): significantly rightward shifted |
| C=CCSSCC(NC(C)=O)C(=O)O (stereo not shown) [Compound 5] | 64 ± 1 | 39 ± 1 | 16 ± 1 |  |  | 87.7 ± 1.0 |  | activation at 300 µM (rat aorta strips): 16%; half-life at 100 µM [2]: ~0.0833 h |
| CCOC(=O)COc1ccc(-c2cc(=S)ss2)cc1 [Compound 14] |  |  |  |  |  |  | 0.5 | activation at 10 µM (rat aorta strips): 37% |
| COC(=O)c1csc(=S)s1 [Compound 16] |  |  |  |  |  |  | 1.5 | activation at 100 µM (rat aorta strips; 100 μM): 25% |
| COC(=O)c1ccc(C(N)=S)cc1 [Compound 18] |  |  |  |  |  |  | 3.7 | activation at 10 µM (rat aorta strips): 33% |
| O.Oc1cc(O)c2c(c1)O[C@H](c1ccc(O)c(O)c1)[C@@H](O)C2 [catechin, reference compound] |  |  |  |  |  |  |  | Ach-induced maximal relaxation ([4]; rings incubated with catechin 10 mM and 500 μM pyrogallol): 77 ± 3% |
| Oc1cccc(O)c1O [pyrogallol, reference compound] |  |  |  |  |  |  |  | Maximum Ach-induced relaxation ([4]; rings incubated with 500 μM pyrogallol alone for 15 min (control 80 ± 3%)): 15 ± 3% |

More lines, main results first:

| % Compd ± SE ([1]; 1 h) [%] | % Compd ± SE ([1]; 4 h) [%] | % Compd ± SE ([1]; 24 h) [%] | Stability (% compound ± SE), buffer + cysteine (50×) ([2]; 1 h) [%] | Stability (% compound ± SE), buffer + cysteine (50×) ([2]; 24 h) [%] | Stability (% compound ± SE), buffer ([3]; 24 h) [%] | half-life at 200 µM [1] [h] | SMILES | other results |
| --- | --- | --- | --- | --- | --- | --- | --- | --- |
| 19.8 ± 0.7 | 0 | 0 |  |  | 57.1 ± 3.3 |  | O=C(O)CCC(=O)NSC(=O)c1ccccc1 [Compound 7] | activation at 300 µM (rat aorta strips): 12%; half-life at 100 µM [2]: ~1.3 h; Stability (% compound ± SE), buffer ([3]; 6 h): 91.6 ± 1.1% |
|  |  |  |  |  |  | < 0.5 | CC(=O)NSC(=O)c1ccccc1 [Compound 8] | Effect of glibenclamide on the concentration-response curve / EC50 (rat aorta strips): almost the same; Ach-induced maximum relaxation ([4]; H2S donor 100 μM without exposure to pyrogallol): did not reduce Ach-induced maximum relaxation; Ach-induced maximal relaxation ([4]; rings incubated with H2S donor 100 μM 30 min and 500 μM pyrogallol last 15 min): not able to reduce pyrogallol-induced endothelium impairment |
| 94.2 ± 0.2 | 90.0 ± 0.8 | 83 ± 1 | 98.6 ± 0.3 | 78.1 ± 0.3 | 92.6 ± 0.8 |  | O=C(O)c1ccc(-c2ssc(=S)c2-c2ccccc2)cc1 [Compound 9] | EC50 (rat aorta strips): 78 ± 7 µM; Effect of glibenclamide on the concentration-response curve / EC50 (rat aorta strips): significantly rightward shifted; Stability (% compound ± SE), buffer + cysteine (50×) ([2]; 6 h): 94.9 ± 0.7% |
|  |  |  |  |  |  | 2.4 | COC(=O)c1ccc(-c2ssc(=S)c2-c2ccccc2)cc1 [Compound 10] | activation at 10 µM (rat aorta strips): 29% |
| 96.3 ± 0.2 | 90.0 ± 0.9 | 53 ± 2 | 99.0 ± 0.3 | 37.6 ± 0.1 | 94.8 ± 3.2 |  | O=C(O)c1ccc(-c2cssc2=S)cc1 [Compound 11] | activation at 100 µM (rat aorta strips; 100 μM): 42%; Stability (% compound ± SE), buffer + cysteine (50×) ([2]; 6 h): 82.6 ± 0.2% |
|  |  |  |  |  |  | 2.7 | CCOC(=O)c1ccc(-c2cssc2=S)cc1 [Compound 12] | Effect of glibenclamide on the concentration-response curve / EC50 (rat aorta strips): almost the same |
| 99.2 ± 0.1 | 96.0 ± 0.8 | 94.3 ± 2 | 99.0 ± 0.4 | 81.9 ± 0.1 | 101.8 ± 1.4 |  | O=C(O)COc1ccc(-c2cc(=S)ss2)cc1 [Compound 13] | activation at 100 µM (rat aorta strips; 100 μM): 39%; Stability (% compound ± SE), buffer + cysteine (50×) ([2]; 6 h): 96.6 ± 0.1% |
| 99.2 ± 0.1 | 95 ± 1 | 94.8 ± 2 | 100.0 ± 0.2 | 96.6 ± 1.0 | 100.0 ± 1.0 |  | O=C(O)c1csc(=S)s1 [Compound 15] | activation at 300 µM (rat aorta strips): 17% |
| 91.6 ± 0.3 | 85.0 ± 0.1 | 64.7 ± 0.2 | 97.6 ± 0.2 | 25.0 ± 0.6 | 82.3 ± 0.4 |  | NC(=S)c1ccc(C(=O)O)cc1 [Compound 17] | activation at 300 µM (rat aorta strips): 27%; Stability (% compound ± SE), buffer + cysteine (50×) ([2]; 6 h): 84.1 ± 0.2% |
